Source: paper PMC12282092, “Discovery of a non-nucleoside inhibitor that binds to a novel site in the palm domain of the respiratory syncytial virus RNA-dependent RNA polymerase” (Journal of Virology, 2025)

Assays:
[1] = system: rgRSV224 virus (RSV A2) in HeLa cells; experiment: HeLa cell rgRSV224 eGFP reporter viral proliferation assay; format: cell-based; conditions: human respiratory syncytial virus, RSV eGFP phenotypic assay in HeLa cells; for EC50: HeLa, 72 h, MOI 1, 72 h, n ≥ 2, read-out: Cellular EC50; for Emax: read-out: Cellular Emax
Method: (§1) Compound serial dilutions (9 point, fourfold) were prepared in DMSO, and 200 nL was transferred to black, 384-well, clear-bottom microtiter plates (Corning, Amsterdam, The Netherlands) via acoustic drop ejection ([36], [50]). […] Then, 20 µL of a HeLa cell suspension (3,000 cells/well) was added with a Multidrop Combi, and cells were incubated at 37°C in a 5% CO2 atmosphere. After 72 h, GFP expression was quantified using an EnVision Multimode Plate Reader (Perkin Elmer, Zaventem, Belgium), and data were normalized to untreated and media-only (no virus) controls. Cytotoxicity was determined in parallel using the ATPlite kit (Perkin Elmer, Zaventem, Belgium). Luminescence was measured in white, 384-well microtiter plates (Corning) on a ViewLux uHTS Microplate Imager apparatus (PerkinElmer, Zaventem, Belgium), and cellular ATP content was quantified by normalizing to untreated and media-only (no cell) controls. […] Figures were prepared with GraphPad Prism.

[2] = Metabolic stability in liver microsomes; conditions: in vitro intrinsic clearance in human liver microsomes, n = 1
RSV L+P = target: T1, RSV L+P (Human respiratory syncytial virus A, UniProt P28887); experiment: Pyrophosphate luminescence detection assay, full-length RSV L+P; format: biochemical; conditions: for Emax: read-out: Biochemical Emax; for IC50: read-out: Biochemical IC50
T1 construct: Biochemical activity of 1 and 22 against full-length RSV L+P; Twin-Strep-tag (N); made in house; host or cells: Sf9 insect cells (baculovirus, pFastBac Dual)
T1 sequence (P03421 whole entry): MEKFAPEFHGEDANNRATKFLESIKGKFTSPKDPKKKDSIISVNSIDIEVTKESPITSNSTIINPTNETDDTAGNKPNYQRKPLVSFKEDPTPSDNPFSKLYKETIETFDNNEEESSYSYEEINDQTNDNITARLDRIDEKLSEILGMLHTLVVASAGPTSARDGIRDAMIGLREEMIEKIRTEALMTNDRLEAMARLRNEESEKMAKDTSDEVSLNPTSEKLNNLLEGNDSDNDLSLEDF
T1 sequence (P28887 whole entry): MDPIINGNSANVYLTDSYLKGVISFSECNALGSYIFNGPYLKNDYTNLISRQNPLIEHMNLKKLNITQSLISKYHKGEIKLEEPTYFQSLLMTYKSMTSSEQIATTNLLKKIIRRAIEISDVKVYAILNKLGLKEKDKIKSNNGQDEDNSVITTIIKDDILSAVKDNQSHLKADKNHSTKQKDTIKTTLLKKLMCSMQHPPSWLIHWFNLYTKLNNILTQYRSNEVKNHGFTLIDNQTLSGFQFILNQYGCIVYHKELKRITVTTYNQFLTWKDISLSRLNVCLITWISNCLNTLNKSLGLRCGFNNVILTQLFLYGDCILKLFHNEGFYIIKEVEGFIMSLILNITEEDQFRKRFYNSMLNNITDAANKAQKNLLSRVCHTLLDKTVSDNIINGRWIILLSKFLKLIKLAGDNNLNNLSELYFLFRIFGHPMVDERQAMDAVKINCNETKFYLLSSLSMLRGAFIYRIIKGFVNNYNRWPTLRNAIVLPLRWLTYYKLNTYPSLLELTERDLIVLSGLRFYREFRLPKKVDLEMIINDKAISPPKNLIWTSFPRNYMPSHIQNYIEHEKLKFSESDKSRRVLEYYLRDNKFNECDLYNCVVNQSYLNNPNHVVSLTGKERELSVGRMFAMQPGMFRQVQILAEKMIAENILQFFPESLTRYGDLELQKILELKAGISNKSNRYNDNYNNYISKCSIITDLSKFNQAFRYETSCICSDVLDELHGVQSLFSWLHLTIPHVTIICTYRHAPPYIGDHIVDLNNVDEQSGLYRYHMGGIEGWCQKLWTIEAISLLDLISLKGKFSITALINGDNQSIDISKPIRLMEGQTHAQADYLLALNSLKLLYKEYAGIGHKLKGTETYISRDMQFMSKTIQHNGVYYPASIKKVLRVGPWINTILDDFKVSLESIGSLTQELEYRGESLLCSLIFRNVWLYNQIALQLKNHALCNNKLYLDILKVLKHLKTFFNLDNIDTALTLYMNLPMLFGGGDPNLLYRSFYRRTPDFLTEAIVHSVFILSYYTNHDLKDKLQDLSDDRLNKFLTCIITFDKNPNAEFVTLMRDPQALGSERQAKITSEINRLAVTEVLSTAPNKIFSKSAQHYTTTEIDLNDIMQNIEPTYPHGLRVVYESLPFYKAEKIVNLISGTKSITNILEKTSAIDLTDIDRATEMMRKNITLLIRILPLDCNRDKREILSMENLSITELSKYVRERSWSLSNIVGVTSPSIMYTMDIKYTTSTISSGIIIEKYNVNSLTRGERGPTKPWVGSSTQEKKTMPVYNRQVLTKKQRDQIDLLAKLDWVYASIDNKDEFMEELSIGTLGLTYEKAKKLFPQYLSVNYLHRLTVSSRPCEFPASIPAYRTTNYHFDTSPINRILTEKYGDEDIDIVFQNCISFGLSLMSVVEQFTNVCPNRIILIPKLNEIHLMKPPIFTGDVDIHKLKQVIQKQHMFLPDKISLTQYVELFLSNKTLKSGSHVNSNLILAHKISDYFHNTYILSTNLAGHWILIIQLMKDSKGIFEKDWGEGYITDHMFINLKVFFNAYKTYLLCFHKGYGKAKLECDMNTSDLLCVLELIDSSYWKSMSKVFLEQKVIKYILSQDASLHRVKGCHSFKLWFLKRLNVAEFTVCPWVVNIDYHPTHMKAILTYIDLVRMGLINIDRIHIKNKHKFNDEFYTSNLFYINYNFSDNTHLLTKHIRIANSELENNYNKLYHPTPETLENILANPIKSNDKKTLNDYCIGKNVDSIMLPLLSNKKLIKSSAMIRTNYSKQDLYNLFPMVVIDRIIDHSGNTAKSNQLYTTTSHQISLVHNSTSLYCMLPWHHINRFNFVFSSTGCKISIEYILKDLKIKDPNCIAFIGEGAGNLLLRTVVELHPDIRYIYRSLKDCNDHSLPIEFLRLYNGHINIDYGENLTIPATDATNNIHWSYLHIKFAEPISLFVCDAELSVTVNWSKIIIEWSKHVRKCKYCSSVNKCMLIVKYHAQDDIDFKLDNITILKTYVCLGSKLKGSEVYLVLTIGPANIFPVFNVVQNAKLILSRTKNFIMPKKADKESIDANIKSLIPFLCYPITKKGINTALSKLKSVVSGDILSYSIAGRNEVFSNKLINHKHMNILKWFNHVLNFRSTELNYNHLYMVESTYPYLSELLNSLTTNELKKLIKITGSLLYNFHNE
Method: Working solutions (3×) of RSV L+P (60 nM), substrate (30 µM each of GTP, CTP, UTP, 300 µM ATPαS [Jena Bioscience], 15 µM RNA template TrC-25), detection reagents (6 nM Luciferase, 900 µM luciferin, 3 U/µL ATP Sulfurylase [BioVision], 15 µM adenosine phosphosulfate [APS], 3 mM coenzyme A), were prepared in complete assay buffer. Compounds were dissolved in dimethyl sulfoxide (DMSO) and dispensed to white, 1536-well cyclic olefin copolymer (COC) plates (Corning, 9145BC) using an Echo Acoustic Liquid Handler (Beckman Coulter, San Jose, CA). Substrate (1 µL) and detection reagents (1 µL) were dispensed using a Multidrop Combi Dispenser (ThermoFisher, Waltham, MA), followed by enzyme (1 µL) to initiate the reaction. Final screening concentrations were 20 nM RSV L+P, 10 µM GTP/CTP/UTP, 100 µM ATPαS, 5 µM TrC-25, 2 nM Luciferase (Promega), 300 µM luciferin (Promega), 1 U/µL ATP sulfurylase, 5 µM APS, and 1 mM CoA. […] Luminescence was detected using the PHERAStar FSX (BMG Labtech, Ortenberg, Germany).

HeLa cells = experiment: HeLa cytotoxicity assay (ATPlite); conditions: HeLa cells
Method: as §1

[3] = HeLa cytotoxicity assay (ATPlite); conditions: human; for CC50 at 72 h: HeLa cells
Method: as §1

[4] = target: Full-length RSV P (1-241) protein (human RSV); experiment: cryo-EM structure; full-length RSV L+P complex with compound 22; 0.8 mg/mL on grids; global resolution 2.72 Å
[5] = target: coupled enzyme system (ATP sulfurylase, luciferase); experiment: Pyrophosphate detection counterscreen; format: biochemical; conditions: read-out: PPi counterscreen IC50
Method: To determine if compounds were interfering with the sulfurylase or luciferase in the pyrophosphate luminescence detection assay, a counterscreen was developed to monitor activity of the coupling system. Working solutions (3×) of substrate and detection reagents were prepared as before and added to 1536-well white, COC plates containing compound titrations. Then, 1 µL of a 3× solution of 4.5 µM sodium pyrophosphate (Sigma, P8010) was dispensed with the Multidrop Combi to initiate the reaction. […] Luminescence was detected using the PHERAStar FSX. […] Figures were prepared with GraphPad Prism.

[6] = target: human mitochondrial RNA polymerase (POLRMT) (Homo sapiens, UniProt O00411); experiment: POLRMT assay
human mitochondrial RNA polymerase (POLRMT), sequence (O00411 103-1230): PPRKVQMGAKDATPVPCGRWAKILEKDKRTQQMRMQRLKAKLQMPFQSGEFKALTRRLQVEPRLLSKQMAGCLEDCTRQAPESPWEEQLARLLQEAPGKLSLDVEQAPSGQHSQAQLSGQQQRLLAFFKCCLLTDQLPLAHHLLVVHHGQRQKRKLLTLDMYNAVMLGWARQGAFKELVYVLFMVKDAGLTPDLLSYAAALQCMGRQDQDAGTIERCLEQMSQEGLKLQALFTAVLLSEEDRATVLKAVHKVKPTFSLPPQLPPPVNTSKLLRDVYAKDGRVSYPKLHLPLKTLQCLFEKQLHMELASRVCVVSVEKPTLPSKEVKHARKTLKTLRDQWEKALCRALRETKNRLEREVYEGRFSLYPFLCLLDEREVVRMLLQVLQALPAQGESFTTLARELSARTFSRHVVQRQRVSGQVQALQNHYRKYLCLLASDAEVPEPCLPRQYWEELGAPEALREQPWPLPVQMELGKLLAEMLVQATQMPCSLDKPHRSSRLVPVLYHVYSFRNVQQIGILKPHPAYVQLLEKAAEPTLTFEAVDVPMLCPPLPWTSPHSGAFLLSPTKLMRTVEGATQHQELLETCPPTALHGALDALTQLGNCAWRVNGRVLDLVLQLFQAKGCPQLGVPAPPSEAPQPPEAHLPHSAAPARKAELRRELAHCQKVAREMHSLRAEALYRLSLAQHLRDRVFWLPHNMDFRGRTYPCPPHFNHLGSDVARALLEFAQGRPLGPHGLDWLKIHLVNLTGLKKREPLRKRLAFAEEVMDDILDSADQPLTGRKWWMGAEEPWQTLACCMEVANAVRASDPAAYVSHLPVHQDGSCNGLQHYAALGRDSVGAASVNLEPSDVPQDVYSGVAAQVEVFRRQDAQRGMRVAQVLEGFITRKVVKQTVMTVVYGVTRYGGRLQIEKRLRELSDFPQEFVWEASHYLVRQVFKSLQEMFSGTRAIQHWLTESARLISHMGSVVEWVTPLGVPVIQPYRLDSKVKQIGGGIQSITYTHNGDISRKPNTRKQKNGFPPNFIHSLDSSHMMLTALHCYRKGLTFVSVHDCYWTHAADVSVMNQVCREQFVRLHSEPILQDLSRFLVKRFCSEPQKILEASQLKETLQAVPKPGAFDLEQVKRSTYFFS

[7] = pyrophosphate luminescence detection assay
[8] = pyrophosphate luminescence detection assay, full-length RSV L+P, n ≥ 2

CN1C(=O)C2(CCN(c3cnc(C#N)c(Cl)c3)CC2)c2cc(F)ccc21 [Compound 23, 3-chloro-5-(5-fluoro-1-methyl-2-oxospiro[indoline-3,4'-piperidin]-1'-yl)picolinonitrile]
EC50 [1]: 3.67 µM
Emax [1]: 93.3%
HLM CLint [2]: 19 µL/min/mg microsomal protein
Emax (RSV L+P; [7]): 103%
Cytotoxicity Emax (HeLa cells): 55.7%
CC50 at 72 h [3]: > 3.74 µM

Cc1ccc2c(c1)C1(CCN(c3cnc(C#N)c(Cl)c3)CC1)C(=O)N2 [Compound 17, 3-chloro-5-(5-methyl-2-oxospiro[indoline-3,4'-piperidin]-1'-yl)picolinonitrile]
EC50 [1]: 10.9 µM
Emax [1]: 55.1%
HLM CLint [2]: 123 µL/min/mg microsomal protein
IC50 (RSV L+P; [8]): 1750 nM
Emax (RSV L+P; [7]): 111%
Cytotoxicity Emax (HeLa cells): 8.6%
CC50 at 72 h [3]: > 50 µM

COc1ccc2c(c1)C1(CCN(c3cnc(C#N)c(Cl)c3)CC1)C(=O)N2 [Compound 18, 3-chloro-5-(5-methoxy-2-oxospiro[indoline-3,4'-piperidin]-1'-yl)picolinonitrile]
EC50 [1]: 15.9 µM
Emax [1]: 96.8%
IC50 (RSV L+P; [8]): 3100 nM
Emax (RSV L+P; [7]): 100%
Cytotoxicity Emax (HeLa cells): 82.4%
CC50 at 72 h [3]: 24.4 µM

Full-length RSV P (1-241) protein (natural protein)
stoichiometry N [4]: 4

N#Cc1ncc(N2CCC3(CC2)C(=O)N(CCF)c2ccc(F)cc23)cc1Cl [Compound 25, 3-chloro-5-(5-fluoro-1-(2-fluoroethyl)-2-oxospiro[indoline-3,4'-piperidin]-1'-yl)picolinonitrile]
EC50 [1]: 8.86 µM
Emax [1]: 80.3%
HLM CLint [2]: 14.1 µL/min/mg microsomal protein
IC50 (RSV L+P; [8]): 2860 nM
Emax (RSV L+P; [7]): 90.7%
Cytotoxicity Emax (HeLa cells): 66.5%
CC50 at 72 h [3]: > 23.4 µM

CN1C(=O)C2(CCN(c3ccc(C#N)c(Cl)n3)CC2)c2cc(F)ccc21 [Compound 29, 2-chloro-6-(5-fluoro-1-methyl-2-oxospiro[indoline-3,4'-piperidin]-1'-yl)nicotinonitrile]
EC50 [1]: 7.89 µM
Emax [1]: 94.3%
HLM CLint [2]: 31.9 µL/min/mg microsomal protein
IC50 (RSV L+P; [8]): 1560 nM
Emax (RSV L+P; [7]): 95.5%
Cytotoxicity Emax (HeLa cells): 66.9%
CC50 at 72 h [3]: > 8.43 µM

N#Cc1ncc(N2CCC3(CC2)C(=O)Nc2ccc(Cl)cc23)cc1Cl [Compound 16, 3-chloro-5-(5-chloro-2-oxospiro[indoline-3,4'-piperidin]-1'-yl)picolinonitrile]
EC50 [1]: 8.07 µM
Emax [1]: 94.2%
HLM CLint [2]: <7.7 µL/min/mg microsomal protein
IC50 (RSV L+P; [8]): 1030 nM
Emax (RSV L+P; [7]): 108%
Cytotoxicity Emax (HeLa cells): 45.3%
CC50 at 72 h [3]: > 13 µM

N#Cc1ncc(N2CCC3(CC2)C(=O)N(CC2CC2)c2ccc(F)cc23)cc1Cl [Compound 24, 3-chloro-5-(1-(cyclopropylmethyl)-5-fluoro-2-oxospiro[indoline-3,4'-piperidin]-1'-yl)picolinonitrile]
EC50 [1]: 8.61 µM
Emax [1]: 78.3%
HLM CLint [2]: 46.3 µL/min/mg microsomal protein
Emax (RSV L+P; [7]): 89.4%
Cytotoxicity Emax (HeLa cells): 51.8%
CC50 at 72 h [3]: > 7.77 µM

N#Cc1ncc(N2CCC3(CC2)C(=O)N(c2cccnc2)c2ccc(F)cc23)cc1Cl [Compound 21, 3-chloro-5-(5-fluoro-2-oxo-1-(pyridin-3-yl)spiro[indoline-3,4'-piperidin]-1'-yl)picolinonitrile]
EC50 [1]: 3.38 µM
Emax [1]: 95.8%
IC50 (RSV L+P; [8]): 800 nM
Emax (RSV L+P; [7]): 107%
Cytotoxicity Emax (HeLa cells): 44.8%
CC50 at 72 h [3]: > 2.71 µM

CN1C(=O)C2(CCN(c3ccc(C#N)c(Cl)c3)CC2)c2cc(F)ccc21 [Compound 30]
EC50 [1]: 4.35 µM
Emax [1]: 95.8%
HLM CLint [2]: 39.1 µL/min/mg microsomal protein
IC50 (RSV L+P; [8]): 1250 nM
Emax (RSV L+P; [7]): 100%
Cytotoxicity Emax (HeLa cells): 58.0%
CC50 [3]: > 6.65 µM

CN1C(=O)C2(CCN(c3cnc(N4CCOCC4)c(Cl)c3)CC2)c2cc(F)ccc21 [Compound 34, 1'-(5-chloro-6-morpholinopyridin-3-yl)-5-fluoro-1-methylspiro[indoline-3,4'-piperidin]-2-one]
EC50 [1]: 30.3 µM
Emax [1]: 49.6%
HLM CLint [2]: 126 µL/min/mg microsomal protein
Biochemical IC50 (RSV L+P; [8]): inactive
IC50 (RSV L+P; [8]): > 30200 nM
Emax (RSV L+P; [7]): 69.5%
Cytotoxicity Emax (HeLa cells): 41.6%
CC50 at 72 h [3]: > 50 µM

N#Cc1ncc(N2CCC3(CC2)C(=O)Nc2ccc(F)cc23)cc1Cl [Compound 19, 3-chloro-5-(5-fluoro-2-oxospiro[indoline-3,4'-piperidin]-1'-yl)picolinonitrile]
EC50 [1]: 6.54 µM
Emax [1]: 99.9%
HLM CLint [2]: 19 µL/min/mg microsomal protein
IC50 (RSV L+P; [8]): 2700 nM
Emax (RSV L+P; [7]): 106%
Cytotoxicity Emax (HeLa cells): 52.2%
CC50 at 72 h [3]: > 50 µM

N#Cc1ncc(N2CCC3(CC2)C(=O)Nc2ccccc23)cc1Cl [Compound 20, 3-chloro-5-(2-oxospiro[indoline-3,4'-piperidin]-1'-yl)picolinonitrile]
EC50 [1]: 8.34 µM
Emax [1]: 81.4%
HLM CLint [2]: 19.7 µL/min/mg microsomal protein
loss in potency on replacing the bromo substituent with a proton (RSV L+P; compared to 1): 10 fold
IC50 (RSV L+P; [8]): 6630 nM
Emax (RSV L+P; [7]): 84.7%
Cytotoxicity Emax (HeLa cells): 42.9%
CC50 at 72 h [3]: > 3.8 µM

Cc1cc(N2CCC3(CC2)C(=O)N(C)c2ccc(F)cc23)cc(F)c1C#N [Compound 32, 2-fluoro-4-(5-fluoro-1-methyl-2-oxospiro[indoline-3,4'-piperidin]-1'-yl)-6-methylbenzonitrile]
EC50 [1]: 13.8 µM
Emax [1]: 92.6%
HLM CLint [2]: 64.8 µL/min/mg microsomal protein
IC50 (RSV L+P; [8]): 1900 nM
Emax (RSV L+P; [7]): 91.2%
Cytotoxicity Emax (HeLa cells): 50.9%
CC50 at 72 h [3]: > 5.78 µM

COc1cc(N2CCC3(CC2)C(=O)N(C)c2ccc(F)cc23)cnc1C#N [Compound 31, 5-(5-fluoro-1-methyl-2-oxospiro[indoline-3,4'-piperidin]-1'-yl)-3-methoxypicolinonitrile]
EC50 [1]: 8.78 µM
Emax [1]: 98.6%
HLM CLint [2]: 20.5 µL/min/mg microsomal protein
IC50 (RSV L+P; [8]): 2980 nM
Emax (RSV L+P; [7]): 115%
Cytotoxicity Emax (HeLa cells): 37.6%
CC50 at 72 h [3]: > 22.7 µM

N#Cc1ncc(N2CCC3(CC2)C(=O)Nc2ccc(Br)cc23)cc1Cl [Compound 1, 5-(5-bromo-2-oxospiro[indoline-3,4'-piperidin]-1'-yl)-3-chloropicolinonitrile]
EC50 [1]: 6.68 µM
Emax [1]: 94.6%
HLM CLint [2]: <7.7 µL/min/mg microsomal protein
Emax (RSV L+P; [7]): 110%
IC50 [5]: > 100 µM
Cytotoxicity Emax (HeLa cells): 63.1%
CC50 at 72 h [3]: > 3.8 µM
IC50 [6]: > 100 µM
POLRMT IC50 ([6]; 8 nM POLRMT): no activity
